In general, logD refers to the decadic logarithm of the distribution of all forms, ionised or not, between an organic phase and buffer at a given pH. Lower therefore signals a more hydrophilic compound.

“Also recorded” adds a separate entry of the source.

Data set [1] can be described thus: Partition coefficient between n-octanol and water or Tris buffer. Format: physicochemical. The conditions noted are these: for logD: coligands Tricine-TPPTS. Here is the method: Matrix metalloproteinase-targeted imaging agents known in the art suffer from poor solubility of their precursors and have blood clearance times that make them ill-suited for practical application. The partition coefficient (Log D) values of ^99mTc-1 and ^99mTc-RP805 were determined based on their proportional distribution between n-octanol and water or Tris buffer at pH 7.4. […] Compared with ^99mTc-RP805 and its precursor, the increased hydrophilicity of ^99mTc-1 (and 1) can in one aspect be ascribed to the introduction of arginine residue.

A short description of data set [2]: Blood kinetics and biodistribution in C57BL/6J mice. As to conditions: mouse, in vivo; for blood pool activity: iv. On the procedure:
Biodistribution at 2 h post-injection (p.i.) and blood clearance were evaluated in C57Bl/6J mice injected with 16±5 MBq of ^99mTc-1 (n=6) or ^99mTc-RP805 (n=6). In vivo targeting to aneurysm and specificity of ^99mTc-1 was evaluated in high-fat fed apolipoprotein E-deficient mice, 4 weeks after carotid aneurysm induction through peri-adventitial application of CaCl2. The animals were injected with 31±14 MBq of ^99mTc-1 with (n=3) or without (n=4) pre-injection of non-labeled 1.

Data set [3] deals with CaCl2-induced carotid aneurysm. The data set can be described thus: Quantitative autoradiography of carotid aneurysm, blocking study. Format: in vivo, apoE−/− mice. The conditions noted are these: autoradiography at 2 h. Here is the method:
Arterial aneurysm was induced by exposing the left common carotid artery of apolipoprotein E-deficient (apoE^−/−) mice to calcium chloride. Briefly, 4- to 6-wk-old female apoE^−/− mice (n=96; Jackson Laboratory) were fed high-cholesterol chow ad libitum. After 1 wk, the carotid arteries were exposed by blunt-end dissection under anesthesia. The left common carotid artery just below the carotid bifurcation was adventitially exposed to a 10% solution of CaCl2 for 20 min. The opposite carotid artery was exposed to normal saline and served as a control for imaging studies (Razavian, et al., 2010, J Nucl Med. 51(7):1107-15).
For autoradiography, the specimens were mounted on a board and placed in contact with to a reusable phosphor screen (MultiSensitive Phosphor Screen, PerkinElmer) along with standards of known activity. The screen was scanned in a phosphor imager system (Typhoon Trio, GE Healthcare Life Sciences) at a pixel size of 25×25 μm and images were analyzed using the Fiji software. Tracer uptake was quantified using a standard curve and expressed a % injected dose (ID)/pixel.
The tissues were placed on a phosphor screen (MultiSensitive Phosphor Screen, PerkinElmer) along with standards of known activity. […]

The test system of data set [4] is suprarenal abdominal aorta (AAA). Nature of the data set: microSPECT/CT imaging of AAA in angiotensin II-infused mice. Format: in vivo, apoE−/− mice. Here is the method: In addition, sixteen weeks-old male apoE^−/− (n=16) were infused with human angiotensin II (Ang II, 1000 ng/kg/min, Calbiochem), delivered by a subcutaneous osmotic minipump (Model 2004, Alzet) implanted under anesthesia (isoflurane 2%).
Animals were imaged using a dedicated high resolution small animal imaging system (X-SPECT, GammaMedica), using one mm low energy (for ^99mTc) pinhole collimators. The spatial resolution of this system for ^99mTc in tomographic images with a 1-mm pinhole collimator and 4 cm radius of rotation was 1.1 mm full-width half-maximum. Radiotracer (1 mCi for mice) was injected through an intravenous catheter. Anesthetized mice (with isoflurane) were placed in a fixed position under the camera. Three point sources of known activity (˜1 μCi) were placed in the field of view, but outside the body, to quantify tracer uptake and to verify the accuracy of image fusions. […]
After completion of microSPECT images CT imaging was performed (energy: 75 kV/280 μA, matrix: 512×512) to identify anatomical structure. […] Images were analyzed using Xeleris Functional Imaging Workstation (General Electric, Waukesha, Wis.). […] Activities of each organ was expressed as % ID using the point sources. […]
RNA was isolated from aortic tissue using GenElute Mammalian Total RNA Miniprep Kit (Sigma-Aldrich) and reverse-transcribed using QuantiTect Reverse Transcription Kit (Qiagen). […]

Data set [5] is described as follows: Radiochemical stability in mouse blood by radio-HPLC. Format: in vitro ADME. The conditions noted are these: in vitro incubation at 37° C. up to 5 hours. On the procedure: Tracers were incubated in blood (200 μL) with gentle agitation (Thermo mixer, 1000 rpm) at 37° C. for 4 h. At 0, 2, and 4 h time points, 40 μL of blood sample were collected and centrifuged at 4° C. (3000 rpm, 20 min). 10 μL of the supernatant (plasma) were collected and diluted in methanol (90 μL). The sample was then vortexed for 30 s at room temperature and centrifuged at 4° C. (3000 rpm, 15 min). 50 μL of the supernatant were concentrated, filtered and analysed by radioHPLC or LC-MS.
(§1) Radiolabeling quality control was performed by reverse phase radio-HPLC analysis (HPLC system 2489, Waters) with a flow rate of 1 mL/min using an analytical column (JUPITER® 4 μm Proteo 90 Å, Phenomenex) with gradients of solvent A (0.16% ammonium formate in aqueous solution) and solvent B (0.16% ammonium formate in 90% acetonitrile). The HPLC gradients were programmed as follows: 10% B for 2 min, 10-70% B in 5 min, 5 min 70% B and 70-90% B in 5 min. In vitro and in vivo stability of the tracer were analyzed by radio-HPLC following in vitro incubation in mouse blood at 37° C. for up to 5 hours, and from urine collected at 2 hours after tracer injection, respectively.

A short description of data set [6]: Aqueous solubility. Format: physicochemical.
The nature of data set [7]: In vivo radiochemical stability, radio-HPLC of urine. More on the design: species or system C57BL/6J mouse. The conditions noted are these: urine collected 2 hours after intravenous injection. On the procedure: as §1
A short description of data set [8]: Stability in saline / radiolabeling media by RP-HPLC. Format: physicochemical. As to conditions: room temperature.
For data set [9] the following is noted: all tissues evaluated, but not the bile; 2 h.
Description: To investigate biodistribution in apoE^−/− mice, animals at seven weeks after peri-adventitial application of CaCl2 or NaCl to carotid arteries were injected with 31±14 MBq (14±2 pg/kg) of ^99mTc-1, with (n=5) or without (n=6) pre-injection of an excess of the parent inhibitor 19 (23±8 ng/kg). Animals were kept under anesthesia for 60 min and blood samples were collected at various times post-injection. Tissue samples and body fluids were collected and weighed at 2 hours post-injection, and measured for their radioactivity by gamma-well counting (WIZARD2®, PerkinElmer). Data were expressed as percentage of injected dose (ID) per gram of tissue or mL of blood.
^99mTc-1 binding to carotid aneurysm and specificity in vivo were evaluated in apoE^−/− mice at seven weeks after peri-adventitial application of CaCl2 to left carotid arteries.

In the case of `CC(C)C[C@H]1C(=O)N[C@H](C(=O)N[C@@H](CCCNC(=N)N)C(=O)NCCNC(=O)c2ccc(N[N]=[Tc]345([PH](c6cccc(S(=O)(=O)O)c6)(c6cccc(S(=O)(=O)O)c6)c6cccc(S(=O)(=O)O)c6)[O]CC(CO)(C[O]3)[N]4CC(=O)[O]5)nc2)Cc2ccc(cc2)OCCC[C@@H]1C(=O)NO` [^99mTc-1], the logD was -4.4 ± 0.1 in [1] (n-octanol/Tris buffer, Octanol/Tris (pH = 7.4)) and -4 ± 0.1 in [1] (n-octanol/water, Octanol/water). In data set [1] (n-octanol/water, read-out: Log P n-octanol/water), the logP is -4 ± 0.1. Further, the “hepatobiliary excretion: bile activity” value in data set [2] (2 h) is recorded as 1.5±0.3 % ID/g. Moreover, in data set [2] (2 h), the “tissue uptake in control aorta” value was found to be 6.0±1.4 % ID/g. The blood pool activity in [2] (1 h) worked out at 1.3±0.4 % ID/mL; in data set [2] (2 h), 1.0±0.4 % ID/mL. Moreover, the “decrease in aneurysm-to-aorta uptake ratio under blocking conditions” value in [3] came out at 1.8 fold. Besides, the “decrease in carotid aneurysm tracer uptake on pre-injection of excess parent pan-MMP inhibitor” value in [3] (blocking vs no blocking) came to 4.6 fold. For the same molecule, the results for the “left ventricle blood pool activity” value in data set [4] (AAA group) and in data set [4] (low remodeling group) were 0.14±0.10 cpv/MBq and 0.12±0.08 cpv/MBq, respectively. Also, the “radiochemical stability in mouse blood” value in data set [5] is on record as “high radiochemical stability; also recorded: good stability; also recorded: single peak; also recorded: radiochemically stable”. The “water solubility (in words)” value in data set [6] is listed as “high water solubility”. Also, the “in vivo radiochemical stability (urine)” value in [7] is reported as “high radiochemical stability”. Besides, the stability in saline entry in [8] is “good stability”. Also, in [9], the “tissue uptake by gamma well counting on pre-injection of parent pan-MMP inhibitor” value was “significantly reduced”.

(Values after US11286251B2, “Matrix metalloproteinase inhibitors and imaging agents, and methods using same” (Yale University, priority 2016, dated 2022).)
